According to PubChem BioAssay AID1963874 (Molecular Pharmacology Branch, DTP, NCI, 2024):

Tested on: 253994-281-T-J1-PDC KRAS-mutant spheroids with HUVEC/MSC, viability
Assay: Anticancer human tumor 253994-281-T-J1-PDC patient-derived colorectal carcinoma cell line growth inhibition [KRAS2]
Settings: for IC50: curve of first compound; for viability, T/C: stronger effect = lower value
Method in brief: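 KRAS-mutant tumor cells were grown as spheroids with HUVEC endothelial cells and human MSCs as stroma. Targeted agents were tested alone and with KRAS pathway inhibitors. Doses started at or near clinical Cmax, or 10 microM, descending half-log.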

[1] = second compound 0.0316 µM, first compound 0.0316 µM
[2] = second compound 0.0316 µM, first compound 0.1 µM
[3] = second compound 0.0316 µM, first compound 0.316 µM
[4] = second compound 0.0316 µM, first compound 1 µM
[5] = second compound 0.0316 µM, first compound 3.16 µM
[6] = second compound 0.0316 µM, first compound 10 µM
[7] = second compound 0.1 µM, first compound 0.0316 µM
[8] = second compound 0.1 µM, first compound 0.1 µM
[9] = second compound 0.1 µM, first compound 0.316 µM
[10] = second compound 0.1 µM, first compound 1 µM
[11] = second compound 0.1 µM, first compound 3.16 µM
[12] = second compound 0.1 µM, first compound 10 µM
[13] = second compound 0.316 µM, first compound 0.0316 µM
[14] = second compound 0.316 µM, first compound 0.1 µM
[15] = second compound 0.316 µM, first compound 0.316 µM
[16] = second compound 0.316 µM, first compound 1 µM
[17] = second compound 0.316 µM, first compound 3.16 µM
[18] = second compound 0.316 µM, first compound 10 µM
[19] = second compound 1 µM, first compound 0.0316 µM
[20] = second compound 1 µM, first compound 0.1 µM
[21] = second compound 1 µM, first compound 0.316 µM
[22] = second compound 1 µM, first compound 1 µM
[23] = second compound 1 µM, first compound 3.16 µM
[24] = second compound 1 µM, first compound 10 µM
[25] = second compound 3.16 µM, first compound 0.0316 µM
[26] = second compound 3.16 µM, first compound 0.1 µM
[27] = second compound 3.16 µM, first compound 0.316 µM
[28] = second compound 3.16 µM, first compound 1 µM
[29] = second compound 3.16 µM, first compound 3.16 µM
[30] = second compound 3.16 µM, first compound 10 µM
[31] = second compound 0.0316 µM, first compound 0.01 µM
[32] = second compound 0.1 µM, first compound 0.01 µM
[33] = second compound 0.316 µM, first compound 0.01 µM
[34] = second compound 1 µM, first compound 0.01 µM
[35] = second compound 3.16 µM, first compound 0.01 µM
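Also: spheroids exposed to agents for seven days before readout.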
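For viability, T/C in this document: percent of DMSO vehicle control viability.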

CC(C)NCC(C(=O)N1CCN(c2ncnc3c2C(C)CC3O)CC1)c1ccc(Cl)cc1 (stereo not given) + C=CC(=O)N1CCN(c2nc(OCC3CCCN3C)nc3c2CCN(c2cccc4cccc(C)c24)C3)CC1CC#N
IC50 (second compound 0.0316 µM): > 10 µM
IC50 (second compound 0.1 µM): > 10 µM
IC50 (second compound 0.316 µM): > 10 µM
IC50 (second compound 1 µM): > 10 µM
IC50 (second compound 3.16 µM): < 0.0316 µM
viability, T/C [1]: 104%
viability, T/C [2]: 105%
viability, T/C [3]: 99.7%
viability, T/C [4]: 94.7%
viability, T/C [5]: 96.3%
viability, T/C [6]: 92.7%
viability, T/C [7]: 101%
viability, T/C [8]: 98.8%
viability, T/C [9]: 105%
viability, T/C [10]: 91%
viability, T/C [11]: 94.5%
viability, T/C [12]: 100%
viability, T/C [13]: 84%
viability, T/C [14]: 94.2%
viability, T/C [15]: 92.8%
viability, T/C [16]: 84.9%
viability, T/C [17]: 77.8%
viability, T/C [18]: 85.2%
viability, T/C [19]: 85.6%
viability, T/C [20]: 101%
viability, T/C [21]: 95.1%
viability, T/C [22]: 90.3%
viability, T/C [23]: 93.6%
viability, T/C [24]: 88.7%
viability, T/C [25]: 2.67%
viability, T/C [26]: 11.2%
viability, T/C [27]: 14.7%
viability, T/C [28]: 12.3%
viability, T/C [29]: 4.04%
viability, T/C [30]: 0.49%

CC1COCCN1c1cc(-c2ccnn2C)c2ccnc(-c3ccn[nH]3)c2n1 (stereo not given) + C=CC(=O)N1CCN(c2nc(OCC3CCCN3C)nc3c2CCN(c2cccc4cccc(C)c24)C3)CC1CC#N
IC50 (second compound 0.0316 µM): > 3.16 µM
IC50 (second compound 0.1 µM): > 3.16 µM
IC50 (second compound 0.316 µM): > 3.16 µM
IC50 (second compound 1 µM): > 3.16 µM
IC50 (second compound 3.16 µM): 0.129 µM
viability, T/C [31]: 115%
viability, T/C [1]: 101%
viability, T/C [2]: 87.1%
viability, T/C [3]: 67.6%
viability, T/C [4]: 60.5%
viability, T/C [5]: 64.5%
viability, T/C [32]: 94.1%
viability, T/C [7]: 93.1%
viability, T/C [8]: 90.7%
viability, T/C [9]: 59.7%
viability, T/C [10]: 66.9%
viability, T/C [11]: 60.6%
viability, T/C [33]: 117%
viability, T/C [13]: 93%
viability, T/C [14]: 83%
viability, T/C [15]: 53.8%
viability, T/C [16]: 55.7%
viability, T/C [17]: 62.9%
viability, T/C [34]: 101%
viability, T/C [19]: 94.4%
viability, T/C [20]: 75.5%
viability, T/C [21]: 48.8%
viability, T/C [22]: 51%
viability, T/C [23]: 59.2%
viability, T/C [35]: 80.2%
viability, T/C [25]: 90%
viability, T/C [26]: 53.3%
viability, T/C [27]: 30.6%
viability, T/C [28]: 37.8%
viability, T/C [29]: 47.8%

CC1OCC2(CCN(c3cnc(Sc4ccnc(N)c4Cl)c(N)n3)CC2)C1N (stereo not given) + C=CC(=O)N1CCN(c2nc(OCC3CCCN3C)nc3c2CCN(c2cccc4cccc(C)c24)C3)CC1CC#N
IC50 (second compound 0.0316 µM): 8.57 µM
IC50 (second compound 0.1 µM): > 10 µM
IC50 (second compound 0.316 µM): 6.83 µM
IC50 (second compound 1 µM): 5.05 µM
IC50 (second compound 3.16 µM): 0.0824 µM
viability, T/C [1]: 112%
viability, T/C [2]: 91.7%
viability, T/C [3]: 87.5%
viability, T/C [4]: 81.4%
viability, T/C [5]: 65.4%
viability, T/C [6]: 45.3%
viability, T/C [7]: 87.4%
viability, T/C [8]: 100%
viability, T/C [9]: 76.3%
viability, T/C [10]: 78.5%
viability, T/C [11]: 66.1%
viability, T/C [12]: 50.4%
viability, T/C [13]: 92.3%
viability, T/C [14]: 100%
viability, T/C [15]: 84.3%
viability, T/C [16]: 72.6%
viability, T/C [17]: 60.9%
viability, T/C [18]: 44.9%
viability, T/C [19]: 79.3%
viability, T/C [20]: 82.3%
viability, T/C [21]: 76.7%
viability, T/C [22]: 67.4%
viability, T/C [23]: 56.5%
viability, T/C [24]: 41.4%
viability, T/C [25]: 57.2%
viability, T/C [26]: 48.5%
viability, T/C [27]: 39.8%
viability, T/C [28]: 27%
viability, T/C [29]: 20.6%
viability, T/C [30]: 9.67%

CCN1CCN(Cc2ccc(Nc3ncc(F)c(-c4cc(F)c5nc(C)n(C(C)C)c5c4)n3)nc2)CC1 + C=CC(=O)N1CCN(c2nc(OCC3CCCN3C)nc3c2CCN(c2cccc4cccc(C)c24)C3)CC1CC#N
IC50 (second compound 0.0316 µM): > 1 µM
IC50 (second compound 0.1 µM): 0.751 µM
IC50 (second compound 0.316 µM): > 1 µM
IC50 (second compound 1 µM): 0.586 µM
IC50 (second compound 3.16 µM): 0.0414 µM
viability, T/C (second compound 0.0316 µM, first compound 0.00316 µM): 91.2%
viability, T/C [31]: 105%
viability, T/C [1]: 79.4%
viability, T/C [2]: 92.2%
viability, T/C [3]: 66.8%
viability, T/C [4]: 51.6%
viability, T/C (second compound 0.1 µM, first compound 0.00316 µM): 88.7%
viability, T/C [32]: 89.7%
viability, T/C [7]: 79.3%
viability, T/C [8]: 82.5%
viability, T/C [9]: 73.4%
viability, T/C [10]: 42.2%
viability, T/C (second compound 0.316 µM, first compound 0.00316 µM): 90.5%
viability, T/C [33]: 92.4%
viability, T/C [13]: 85%
viability, T/C [14]: 77.5%
viability, T/C [15]: 68%
viability, T/C [16]: 52.5%
viability, T/C (second compound 1 µM, first compound 0.00316 µM): 81.4%
viability, T/C [34]: 95.7%
viability, T/C [19]: 82.7%
viability, T/C [20]: 74.9%
viability, T/C [21]: 64.9%
viability, T/C [22]: 38%
viability, T/C (second compound 3.16 µM, first compound 0.00316 µM): 61.5%
viability, T/C [35]: 61.1%
viability, T/C [25]: 57%
viability, T/C [26]: 32.9%
viability, T/C [27]: 15.3%
viability, T/C [28]: 1.78%

CCNC(=O)CC1N=C(c2ccc(Cl)cc2)c2cc(OC)ccc2-n2c(C)nnc21 (stereo not given) + C=CC(=O)N1CCN(c2nc(OCC3CCCN3C)nc3c2CCN(c2cccc4cccc(C)c24)C3)CC1CC#N
IC50 (second compound 0.0316 µM): > 10 µM
IC50 (second compound 0.1 µM): > 10 µM
IC50 (second compound 0.316 µM): > 10 µM
IC50 (second compound 1 µM): > 10 µM
IC50 (second compound 3.16 µM): 0.865 µM
viability, T/C [1]: 101%
viability, T/C [2]: 99.7%
viability, T/C [3]: 88.3%
viability, T/C [4]: 97%
viability, T/C [5]: 107%
viability, T/C [6]: 85.9%
viability, T/C [7]: 92.2%
viability, T/C [8]: 110%
viability, T/C [9]: 96.9%
viability, T/C [10]: 107%
viability, T/C [11]: 97.9%
viability, T/C [12]: 86.5%
viability, T/C [13]: 107%
viability, T/C [14]: 104%
viability, T/C [15]: 106%
viability, T/C [16]: 91.4%
viability, T/C [17]: 92.8%
viability, T/C [18]: 90.7%
viability, T/C [19]: 98.4%
viability, T/C [20]: 108%
viability, T/C [21]: 95.8%
viability, T/C [22]: 91%
viability, T/C [23]: 93%
viability, T/C [24]: 85%
viability, T/C [25]: 84%
viability, T/C [26]: 96.2%
viability, T/C [27]: 83.2%
viability, T/C [28]: 25.9%
viability, T/C [29]: 65.9%
viability, T/C [30]: 43.8%

Cn1nccc1Nc1nccc(-c2cc3c(s2)C(C)(C)N(CCN2CCOCC2)C3=O)n1 + C=CC(=O)N1CCN(c2nc(OCC3CCCN3C)nc3c2CCN(c2cccc4cccc(C)c24)C3)CC1CC#N
IC50 (second compound 0.0316 µM): 4.45 µM
IC50 (second compound 0.1 µM): 2.63 µM
IC50 (second compound 0.316 µM): 2.15 µM
IC50 (second compound 1 µM): 3.04 µM
IC50 (second compound 3.16 µM): 0.181 µM
viability, T/C [1]: 92.7%
viability, T/C [2]: 99%
viability, T/C [3]: 89.1%
viability, T/C [4]: 72.4%
viability, T/C [5]: 62.2%
viability, T/C [6]: 28%
viability, T/C [7]: 92.3%
viability, T/C [8]: 96.3%
viability, T/C [9]: 88.7%
viability, T/C [10]: 73.5%
viability, T/C [11]: 45.6%
viability, T/C [12]: 29.4%
viability, T/C [13]: 95.5%
viability, T/C [14]: 103%
viability, T/C [15]: 96.7%
viability, T/C [16]: 67.4%
viability, T/C [17]: 43.1%
viability, T/C [18]: 30.4%
viability, T/C [19]: 107%
viability, T/C [20]: 98.9%
viability, T/C [21]: 73.9%
viability, T/C [22]: 80.3%
viability, T/C [23]: 44.6%
viability, T/C [24]: 27.4%
viability, T/C [25]: 64%
viability, T/C [26]: 53.6%
viability, T/C [27]: 45.2%
viability, T/C [28]: 20.8%
viability, T/C [29]: 4.92%
viability, T/C [30]: 1.02%
